Earlier results in patent US20230285259A1, “METHOD FOR DYEING KERATINOUS MATERIAL, COMPRISING THE USE OF AN ORGANOSILICON COMPOUND, A DERIVATIVE OF ALKYLATED SILANOL, A COLORING COMPOUND AND A POST-TREATMENT AGENT” (Henkel AG & Co. KGaA, priority 2020, published 2023).

Conditions: 25° C.

solubility in water | solubility in water (in words) | SMILES
more than 20 wt. % | – | CCN(Cc1cccc(S(=O)(=O)O)c1)c1ccc(C(=C2C=CC(=[N+](CC)Cc3cccc(S(=O)(=O)O)c3)C=C2)c2ccccc2S(=O)(=O)[O-])cc1 [Acid Blue 9]
– | highly soluble | O=C(O)C1=NN(c2ccc(S(=O)(=O)O)cc2)C(=O)C1N=Nc1ccc(S(=O)(=O)O)cc1 (stereo not shown) [Acid Yellow 23, 4,5-dihydro-5-oxo-1-(4-sulfophenyl)-4-((4-sulfophenyl)azo)-1H-pyrazole-3-carboxylic acid]
above 40 g/L | – | O=[N+]([O-])c1cc([N+](=O)[O-])c2ccc(S(=O)(=O)O)cc2c1O [Acid Yellow 9, 8-hydroxy-5,7-dinitro-2-naphthalenesulfonic acid]

SMILES | solubility in water | solubility in water (in words)
O=S(=O)(O)c1ccc(N=Nc2c(O)ccc3ccccc23)cc1 [Acid Orange 7, 4-[(2-hydroxy-1-naphthyl)azo]benzene sulphonate] | more than 7 g/L | –
